Measurements taken from patent US8003785B2 (Takeda Pharmaceutical Company Limited, priority 2008, dated 2011).

Biological target: T1, PLK1 (Homo sapiens, UniProt P53350)
T1 construct: Full-length, active GST-PLK1 is purified from Sf9 insect cells; made in house; host or cells: Sf9 insect cells
Assay: Biochemical Characterization Assay: HTRF kinase assay, GST-PLK1 phosphorylation of GST-p53
Settings: GST-PLK1, GST-p53 substrate, ATP
Summary of the method: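 Full-length active GST-PLK1 (Sf9, 3 ug/mL) phosphorylated full-length GST-p53 (E. coli) in Kinase Assay Buffer for 35 min at 37 °C. Stopped with EDTA; phospho-p53 detected by HTRF with anti-phospho-p53, Eu-anti-rabbit and APC-anti-GST antibodies.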

T1 sequence (P53350 whole entry): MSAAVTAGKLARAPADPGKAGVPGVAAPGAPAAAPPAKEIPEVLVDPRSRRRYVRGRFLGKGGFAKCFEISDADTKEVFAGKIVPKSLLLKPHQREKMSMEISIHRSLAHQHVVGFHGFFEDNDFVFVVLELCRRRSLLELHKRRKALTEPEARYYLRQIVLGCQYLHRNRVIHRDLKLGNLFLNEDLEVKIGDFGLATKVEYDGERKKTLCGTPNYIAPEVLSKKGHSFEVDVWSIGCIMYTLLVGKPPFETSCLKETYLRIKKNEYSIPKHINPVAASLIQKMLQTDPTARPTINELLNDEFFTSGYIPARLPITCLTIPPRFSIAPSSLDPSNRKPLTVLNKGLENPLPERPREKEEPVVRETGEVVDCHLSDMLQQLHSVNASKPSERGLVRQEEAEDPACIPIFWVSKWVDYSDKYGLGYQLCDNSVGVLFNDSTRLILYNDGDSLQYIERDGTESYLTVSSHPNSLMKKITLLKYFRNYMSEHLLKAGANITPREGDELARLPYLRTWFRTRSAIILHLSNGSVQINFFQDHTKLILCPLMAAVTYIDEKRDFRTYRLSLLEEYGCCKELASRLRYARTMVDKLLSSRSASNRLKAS

SMILES	IC50
COc1cc(C(=O)N[C@H]2CCN(Cc3ccccc3)C2)ccc1Nc1ncc2c(n1)N(C1CCCC1)CC(F)(F)C(=O)N2C [Example I-100, N—((S)-1-benzyl-pyrrolidin-3-yl)-4-(9-cyclopentyl-7,7-difluoro-5-methyl-6-oxo-6,7,8,9-tetrahydro-5H-pyrimido[4,5-b][1,4]diazepin-2-ylamino)-3-methoxy-benzamide]	1 to 50 nM
COc1cc(C(=O)N[C@@H]2CCN(Cc3ccccc3)C2)ccc1Nc1ncc2c(n1)N(C1CCCC1)CC(F)(F)C(=O)N2C [Example I-101, N—((R)-1-benzyl-pyrrolidin-3-yl)-4-(9-cyclopentyl-7,7-difluoro-5-methyl-6-oxo-6,7,8,9-tetrahydro-5H-pyrimido[4,5-b][1,4]diazepin-2-ylamino)-3-methoxy-benzamide]	1 to 50 nM
COc1cc(C(=O)NC2CCN(C(C)=O)CC2)ccc1Nc1ncc2c(n1)N(C1CCCC1)CC(F)(F)C(=O)N2C [Example I-102, N-(1-acetyl-piperidin-4-yl)-4-(9-cyclopentyl-7,7-difluoro-5-methyl-6-oxo-6,7,8,9-tetrahydro-5H-pyrimido[4,5-b][1,4]diazepin-2-ylamino)-3-methoxy-benzamide]	1 to 50 nM
COc1cc(C(=O)N[C@@H]2CN(C(=O)OC(C)(C)C)C[C@H]2O)ccc1Nc1ncc2c(n1)N(C1CCCC1)CC(F)(F)C(=O)N2C [Example I-103, (3R,4R)-3-[4-(9-cyclopentyl-7,7-difluoro-5-methyl-6-oxo-6,7,8,9-tetrahydro-5H-pyrimido[4,5-b][1,4]diazepin-2-ylamino)-3-methoxy-benzoylamino]-4-hydroxy-pyrrolidine-1-carboxylic acid tert-butyl ester]	1 to 50 nM
COc1cc(C(=O)N[C@@H]2CNC[C@H]2O)ccc1Nc1ncc2c(n1)N(C1CCCC1)CC(F)(F)C(=O)N2C [Example I-104, 4-(9-cyclopentyl-7,7-difluoro-5-methyl-6-oxo-6,7,8,9-tetrahydro-5H-pyrimido[4,5-b][1,4]diazepin-2-ylamino)-N-((3R,4R)-4-hydroxy-pyrrolidin-3-yl)-3-methoxy-benzamide]	1 to 50 nM
COc1cc(C(=O)NCCCN2CCC(O)CC2)ccc1Nc1ncc2c(n1)N(C1CCCC1)CC(F)(F)C(=O)N2C [Example I-105, 4-(9-cyclopentyl-7,7-difluoro-5-methyl-6-oxo-6,7,8,9-tetrahydro-5H-pyrimido[4,5-b][1,4]diazepin-2-ylamino)-N-[3-(4-hydroxy-piperidin-1-yl)-propyl]-3-methoxy-benzamide]	1 to 50 nM
COc1cc(C(=O)NC2CN3CCC2CC3)ccc1Nc1ncc2c(n1)N(C1CCCC1)CC(F)(F)C(=O)N2C [Example I-106, N—(R)-1-aza-bicyclo[2.2.2]oct-3-yl-4-(9-cyclopentyl-7,7-difluoro-5-methyl-6-oxo-6,7,8,9-tetrahydro-5H-pyrimido[4,5-b][1,4]diazepin-2-ylamino)-3-methoxy-benzamide]	1 to 50 nM
COc1cc(C(=O)N[C@@H]2CN3CCC2CC3)ccc1Nc1ncc2c(n1)N(C1CCCC1)CC(F)(F)C(=O)N2C [Example I-107, N—(S)-1-aza-bicyclo[2.2.2]oct-3-yl-4-(9-cyclopentyl-7,7-difluoro-5-methyl-6-oxo-6,7,8,9-tetrahydro-5H-pyrimido[4,5-b][1,4]diazepin-2-ylamino)-3-methoxy-benzamide]	1 to 50 nM
COc1cc(C(=O)NC2CCN(c3ccccn3)CC2)ccc1Nc1ncc2c(n1)N(C1CCCC1)CC(F)(F)C(=O)N2C [Example I-108, 4-(9-cyclopentyl-7,7-difluoro-5-methyl-6-oxo-6,7,8,9-tetrahydro-5H-pyrimido[4,5-b][1,4]diazepin-2-ylamino)-3-methoxy-N-(3,4,5,6-tetrahydro-2H-[1,2′]bipyridinyl-4-yl)-benzamide]	1 to 50 nM
COc1cc(C(=O)NCc2ccccn2)ccc1Nc1ncc2c(n1)N(C1CCCC1)CC(F)(F)C(=O)N2C [Example I-109, 4-(9-cyclopentyl-7,7-difluoro-5-methyl-6-oxo-6,7,8,9-tetrahydro-5H-pyrimido[4,5-b][1,4]diazepin-2-ylamino)-3-methoxy-N-pyridin-2-ylmethyl-benzamide]	1 to 50 nM
COc1cc(C(=O)NCCCN2CCCCC2C)ccc1Nc1ncc2c(n1)N(C1CCCC1)CC(F)(F)C(=O)N2C (stereo not drawn) [Example I-110, 4-(9-cyclopentyl-7,7-difluoro-5-methyl-6-oxo-6,7,8,9-tetrahydro-5H-pyrimido[4,5-b][1,4]diazepin-2-ylamino)-3-methoxy-N-[3-(2-methyl-piperidin-1-yl)-propyl]-benzamide]	1 to 50 nM

Results, then the compound that gave them:

IC50	SMILES
1 to 50 nM	COc1cc(C(=O)NCc2cccnc2)ccc1Nc1ncc2c(n1)N(C1CCCC1)CC(F)(F)C(=O)N2C [Example I-111, 4-(9-cyclopentyl-7,7-difluoro-5-methyl-6-oxo-6,7,8,9-tetrahydro-5H-pyrimido[4,5-b][1,4]diazepin-2-ylamino)-3-methoxy-N-pyridin-3-yl-methyl benzamide]
1 to 50 nM	COc1cc(C(=O)NCCC2CCCN2C)ccc1Nc1ncc2c(n1)N(C1CCCC1)CC(F)(F)C(=O)N2C (stereo not drawn) [Example I-112, 4-(9-cyclopentyl-7,7-difluoro-5-methyl-6-oxo-6,7,8,9-tetrahydro-5H-pyrimido[4,5-b][1,4]diazepin-2-ylamino)-3-methoxy-N-[2-(1-methyl-pyrrolidin-2-yl)-ethyl]-benzamide]
1 to 50 nM	COc1cc(C(=O)NCCCN2CCCC2=O)ccc1Nc1ncc2c(n1)N(C1CCCC1)CC(F)(F)C(=O)N2C [Example I-113, 4-(9-cyclopentyl-7,7-difluoro-5-methyl-6-oxo-6,7,8,9-tetrahydro-5H-pyrimido[4,5-b][1,4]diazepin-2-ylamino)-3-methoxy-N-[3-(2-oxo-pyrrolidin-1-yl)-propyl]-benzamide]
1 to 50 nM	COc1cc(C(=O)NCCN2CCCCC2)ccc1Nc1ncc2c(n1)N(C1CCCC1)CC(F)(F)C(=O)N2C [Example I-114, 4-(9-cyclopentyl-7,7-difluoro-5-methyl-6-oxo-6,7,8,9-tetrahydro-5H-pyrimido[4,5-b][1,4]diazepin-2-ylamino)-3-methoxy-N-(2-piperidin-1-yl-ethyl)-benzamide]
1 to 50 nM	COc1cc(C(=O)NN2CCCCC2)ccc1Nc1ncc2c(n1)N(C1CCCC1)CC(F)(F)C(=O)N2C [Example I-115, 4-(9-cyclopentyl-7,7-difluoro-5-methyl-6-oxo-6,7,8,9-tetrahydro-5H-pyrimido[4,5-b][1,4]diazepin-2-ylamino)-3-methoxy-N-piperidin-1-yl-benzamide]
1 to 50 nM	COc1cc(C(=O)NCCc2ccccn2)ccc1Nc1ncc2c(n1)N(C1CCCC1)CC(F)(F)C(=O)N2C [Example I-116, 4-(9-cyclopentyl-7,7-difluoro-5-methyl-6-oxo-6,7,8,9-tetrahydro-5H-pyrimido[4,5-b][1,4]diazepin-2-ylamino)-3-methoxy-N-(2-pyridin-2-yl-ethyl)-benzamide]
1 to 50 nM	COc1cc(C(=O)NCCN2CCOCC2)ccc1Nc1ncc2c(n1)N(C1CCCC1)CC(F)(F)C(=O)N2C [Example I-117, 4-(9-cyclopentyl-7,7-difluoro-5-methyl-6-oxo-6,7,8,9-tetrahydro-5H-pyrimido[4,5-b][1,4]diazepin-2-ylamino)-3-methoxy-N-(2-morpholin-4-yl-ethyl)-benzamide]
